Laboratory results: ChEMBL document CHEMBL1137475, “Design, synthesis, and docking studies of new 1,3,4-thiadiazole-2-thione derivatives with carbonic anhydrase inhibitory activity” (Bioorg Med Chem, 2007)

Assays:
[1] = target: Carbonic anhydrase 1 (Homo sapiens, UniProt P00915)
[2] = target: Carbonic anhydrase 2 (Homo sapiens, UniProt P00918)
[3] = target: Carbonic anhydrase 9 (Homo sapiens, UniProt Q16790)

Chain of Carbonic anhydrase 1 (P00915 whole entry): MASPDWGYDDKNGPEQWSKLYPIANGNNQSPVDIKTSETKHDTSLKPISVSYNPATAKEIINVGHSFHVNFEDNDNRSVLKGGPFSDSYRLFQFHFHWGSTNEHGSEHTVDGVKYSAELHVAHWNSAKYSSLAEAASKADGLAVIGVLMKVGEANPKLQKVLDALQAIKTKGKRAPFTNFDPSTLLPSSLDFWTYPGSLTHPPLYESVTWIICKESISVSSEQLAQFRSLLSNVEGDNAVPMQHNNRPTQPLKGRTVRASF

SMILES | Ki [1] | Ki [2] | Ki [3]
O=C(N/N=C/c1ccccc1[N+](=O)[O-])Nc1n[nH]c(=S)s1 | 223 µM | 433 µM | 24 µM
COc1ccc(/C=N/NC(=O)Nc2n[nH]c(=S)s2)cc1 |  | 350 µM | 24 µM
O=C(N/N=C/c1ccccc1)Nc1n[nH]c(=S)s1 |  | 354 µM | 23 µM
COc1cc(/C=N/NC(=O)Nc2n[nH]c(=S)s2)ccc1O |  | 386 µM | 26 µM
O=C(N/N=C/c1cccc(Br)c1)Nc1n[nH]c(=S)s1 |  | 236 µM | 10.1 µM
O=C(N/N=C/c1ccc(Br)cc1)Nc1n[nH]c(=S)s1 |  | 360 µM | 22 µM
C/C(=N\NC(=O)Nc1n[nH]c(=S)s1)c1ccc(C)cc1 |  |  | 149 µM
C/C(=N\NC(=O)Nc1n[nH]c(=S)s1)c1ccc(O)cc1 |  | 350 µM | 21 µM
COc1ccc(/C(C)=N/NC(=O)Nc2n[nH]c(=S)s2)cc1 |  | 346 µM | 20 µM
O=C(N/N=C/c1ccc([N+](=O)[O-])cc1)Nc1n[nH]c(=S)s1 |  |  | 10 µM
O=C(N/N=C1\C(=O)Nc2ccccc21)Nc1n[nH]c(=S)s1 |  |  | 9.4 µM
O=C(N/N=C/c1ccccc1Cl)Nc1n[nH]c(=S)s1 |  | 412 µM | 29 µM
O=C(N/N=C/c1ccc(Cl)cc1)Nc1n[nH]c(=S)s1 |  |  | 118 µM

Further compounds by falling Ki [3], results first:

Ki [1] | Ki [2] | Ki [3] | SMILES
 |  | 9.3 µM | NNC(=O)Nc1n[nH]c(=S)s1
144 µM |  | 8.55 µM | C/C(=N\NC(=O)Nc1n[nH]c(=S)s1)c1ccc(Cl)cc1
 |  | 8.43 µM | O=C(NN=C(c1ccccc1)c1ccccc1)Nc1n[nH]c(=S)s1
 |  | 7.54 µM | C/C(=N\NC(=O)Nc1n[nH]c(=S)s1)c1ccc([N+](=O)[O-])cc1
 |  | 7.53 µM | O=C(N/N=C/c1ccc(F)cc1)Nc1n[nH]c(=S)s1
 |  | 7.44 µM | C/C(=N\NC(=O)Nc1n[nH]c(=S)s1)c1ccccc1
 |  | 7.18 µM | O=C(NN=C1C(=O)Nc2ccc(Br)cc21)Nc1nnc(S)s1
 |  | 7.13 µM | COc1cccc(/C=N/NC(=O)Nc2n[nH]c(=S)s2)c1
 |  | 6.85 µM | C/C(=N\NC(=O)Nc1n[nH]c(=S)s1)c1ccc(Br)cc1
 |  | 5.75 µM | O=C(N/N=C/c1ccco1)Nc1n[nH]c(=S)s1
 |  | 5.05 µM | O=C(N/N=C/c1cccnc1)Nc1n[nH]c(=S)s1
125 µM |  | 3.35 µM | CN(C)c1ccccc1/C=N/NC(=O)Nc1n[nH]c(=S)s1
 |  | 1.25 µM | O=C(NN=C1C(=O)Nc2ccc([N+](=O)[O-])cc21)Nc1nnc(S)s1
